Measured values reported in patent US9932589B2, “EML4-ALK fusion gene” (Astellas Pharma Inc., priority 2006, dated 2018).

What was measured:
NPM-ALK = target: T1, NPM-ALK (Homo sapiens, UniProt Q9UM73); details: Non-Patent Document 22; cited from earlier work
T1 construct: the other entry of the earlier key: NPM1 (P06748, Nucleophosmin)

[1] = system: v1 expressing BA/F3 cells; test: growth of v1 expressing BA/F3 cells in the absence of IL-3; type: cell-based, mouse; details: 1 μM, 5 μM or 10 μM
Description: Next, compound A, which is a substance that inhibits the EML4-ALK fusion polypeptide v1, was added to BA/F3 cells which obtained the IL-3 independent growth potential by expressing the EML4-ALK fusion polypeptide v1, and its effect on cell growth was investigated. […] That is, it was confirmed that cells, growing dependently on the EML4-ALK fusion polynucleotide (oncogene), were killed by an inhibitor of the EML4-ALK fusion polypeptide v1.

[2] = system: EML4-ALK fusion polypeptide v1; test: intracellular autophosphorylation of EML4-ALK fusion polypeptide v1 in v1 expressing BA/F3 cells; type: cell-based, human; details: for Inhibition on autophosphorylation (BA/F3cells): 6 hours
Description: Compound A (1 μM, 5 μM and 10 μM) was added to the culture medium of v1 expressing BA/F3 cells (Example 5(1)) or not added, and cultured for 3 hours. In addition, BA/F3 cells expressing FLAG-EML4-ALKv1(K589M) were produced using pMX-iresCD8 vector in which EML4-ALK (K589M) was integrated so that FLAG can be added, and cultured. After culturing, cells were counted and the level of phosphorylation of tyrosine of EML4-ALK fusion polypeptide v1 was measured by immunoblotting using anti-phosphorylated ALK antibody. Further, for the same transfer membrane, immunoblotting analysis by anti-FLAG tag antibody (Eastman Kodak Inc.) was carried out, and total protein quantity of the FLAG attached EML4-ALK fusion polypeptide v1 was measured.
However, the culturing time after the addition of the compounds was 6 hours, and the total protein amount of the EML4-ALK fusion polypeptide v1 was measured using anti-ALK antibody. In addition, the amount of phosphorylation was calculated by quantitating as in Example 7(2). Also, for compound A, the amount of phosphorylation was calculated by quantitating in experiment under this condition. The rate of inhibition was calculated from the amount of phosphorylation when the compound was added, using the value when the compound was not added (the solvent of the compound, DMSO was added) as a control (0% inhibition).

[3] = target: T2, EML4-ALK fusion polypeptide v1 (Homo sapiens, UniProt Q9UM73, D1529E/I1461V/K1491R); test: intracellular autophosphorylation of EML4-ALK fusion polypeptide v1 in v1 expressing 3T3 cells; type: cell-based; details: 4 hours
T2 construct: expressed in transfected cells; host or cells: mouse 3T3 fibroblasts transfected with EML4-ALKv1/pMXS (v1 expressing 3T3 cells); for A10, grown as a subcutaneous tumour in nude mice

[4] = system: CD8 expressing BA/F3 cells; test: growth of CD8 expressing BA/F3 cells in the presence of IL-3; type: cell-based, mouse; details: 1 μM, 5 μM or 10 μM
[5] = system: EML4-ALK fusion polypeptide v1; test: in vitro kinase activity (autophosphorylation) of purified EML4-ALK fusion polypeptide v1, immunoblotting with anti-phosphorylated ALK antibody; type: biochemical, human
Description: (§1) The v1 expressing BA/F3 cells (Example 5(1)) were cultured in RPM1640 medium containing 10% of fetal bovine scrum to obtain 2.7×10^9 cells. After washing 3 times with PBS, cells were lysed in a lysis solution (50 mM Tris HCl (pH7.4), 150 mM NaCl, 1% Triton×100, 5 mM EDTA, 5 mM EGTA, 1 mM NaVO4, 1 mM DTT and protease inhibitor cocktail complete). The EML4-ALK fusion polypeptide v1 present in the supernatant obtained after a centrifugation was purified using ANTI-FLAG M2 Affinity Gel (SIGMA-ALDRICH Inc) according to the method described in the product information document. For washing and elution, the washing solution (50 mM Tris.HCl (pH7.4), 250 mM NaCl, 0.05% Brij35, 1 mM EDTA, 1 mM EGTA, 1 mM NaVO4, 1 mM DTT, complete) and the elution solution (50 mM Tris.HCl (pH7.4), 150 mM NaCl, 0.05% Brij35, 1 mM DTT, 0.5 mg/mL FLAG peptide) were used, respectively. Immunoblotting using anti-ALK antibody and anti FLAG M2 antibody (SIGMA-ALDRICH Inc.) and silver staining were carried out for the eluate to detect the EML4-ALK fusion polypeptide v1.
The EML4-ALK fusion polypeptide v1 purified as described above was diluted in a reaction solution (15 mM Tris HCl (pH7.4), 0.25 mM MgCl2, 0.01% Tween-20, 2 mM DTT), and then ATP was not added or ATP 20 μM was added. The respective mixtures were reacted at room temperature for 1 hour. After the reaction, the auto phosphorylated EML4-ALK fusion polypeptide v1 and the EML4-ALK fusion polypeptide v1 were detected by immunoblotting using anti-phosphorylated ALK antibody, which recognizes specifically the product phosphorylated at the 1604th tyrosine residue of ALK, and anti-ALK antibody, and quantitated by an image analysis system (VersaDoc Imaging System; Bio-Rad Inc.). The amount of phosphorylation was calibrated by dividing the count of the autophosphorylated EML4-ALK fusion polypeptide v1 by the count of the EML4-ALK fusion polypeptide v1. As the result, the autophosphorylated EML4-ALK fusion polypeptide v1 band was detected at the location of about 130 kDa under the condition of ATP addition, and the amount of phosphorylation was increased by about 205 folds compared to no-ATP addition.
(§2) The inhibitory effect of compound A-D against the in vitro kinase activity of the EML4-ALK fusion polypeptide v1 was investigated using anti-phosphorylated ALK antibody and the kinase activity detection kit. Respective compounds were added to the reaction solution containing the EML4-ALK fusion polypeptide v1 at a final concentration of 10 μM or 10 nM, and then the reaction was carried out with or without the addition of ATP. The rest of the operations were carried out according to the method (2) described above. […] The inhibition (%) of the kinase activity of the EML4-ALK fusion polypeptide v1 by a compound was calculated by the following formula. […]

U-87MG cells = test: anchorage independent growth on spheroid plate, U-87MG cells expressing full length ALK; type: cell-based, human; details: 3 days; for inhibition at 0.01 µM: final concentration 10 nM
Description: (§3) The v1 expressing 3T3 cells (Example 6(1)) and one of the human glioma cells expressing the full length ALK polypeptide and not expressing EML4-ALK fusion polynucleotide endogenously, U-87 MG cells, were seeded to a 96 well spheroid plate (Sumilon Celltight Spheroid 96U, Sumitomo Bakelite Inc.) at 3000 cells per well in a medium containing 10% fetal bovine serum (DMEM for v1 expressing 3T3 cells and RPMI 1640 for U-87MG). […] At the same time, cells were counted before the addition of drugs (Day 0). Then, cells were cultured under 5% CO2, at 37° C. for 3 days, mixed with a reagent for measuring cell number (CellTiter-Glo™ Luminescent Cell Viability Assay; Promega Inc.) stirred for 20 minutes, and the measurements (day 3) were carried out using a luminometer (ML3000 microtiter plate luminometer; Dynatech Laboratories Inc.).

[6] = system: EML4-ALK fusion polypeptide v1; test: in vitro phosphorylation of peptide substrate (TK substrate 1) by EML4-ALK fusion polypeptide v1, HTRF KinEASE-TK kit; type: biochemical, human
Description: as §1
In addition, the phosphorylation activity toward a peptide substrate was investigated using a kinase activity detection kit (HTRF KinEASE-TK; Cisbio Inc.). Using TK substrate 1, which was included in the kit, as the substrate, and after adding no ATP or 100 μM ATP, the mixtures were reacted at room temperature for 1 hour, and the count of HTRF was detected as recommended by the Kits manufacturer. As the result it became clear that the count of HTRF (that is, phosphorylation of the peptide substrate) was increased by about 12 times by the addition of ATP compare to no addition of ATP. As shown above, the in vitro kinase activity of the EML4-ALK fusion polypeptide v1 can be detected using anti-phosphorylated ALK antibody and the kinase activity detection kit.
as §2

v1 expressing 3T3 cells = test: anchorage independent growth on spheroid plate, v1 expressing 3T3 cells; type: cell-based, mouse
Description: as §3

[7] = target: T3, EML4-ALK fusion polypeptide v2 (Homo sapiens, UniProt Q9UM73, D1529E/I1461V/K1491R); test: intracellular autophosphorylation of EML4-ALK fusion polypeptide v2 in 293EBNA cells; type: cell-based; details: final concentration 10 nM, 4 hours
T3 construct: expressed in transfected cells; host or cells: 293EBNA cells (Invitrogen) transfected with FLAG-EML4-ALKv2/pcDNA3

[8] = system: v1 expressing 3T3 cells (tumor); test: anti-tumor test against v1 expressing 3T3 cells inoculated subcutaneously in nude mice; type: in vivo, mouse; details: once a day for 10 days, start 6 days after inoculation, otherwise similar procedure
Description: Administrations were performed once a day for 14 days, and body weight and tumor size were measured every other day. Tumor volume was calculated using the following formula. […] The administration of the compound D was started after 6 days of the inoculation and carried out once a day for 10 days, and then the tumor size was measured.

[9] = Mus musculus, NIH3T3, read-out: inhibition rate of anchorage independent growth, v1 expressing 3T3 cells
[10] = Homo sapiens, U-87 MG, 72 h, read-out: inhibition rate of anchorage independent growth, U-87MG cell

T2 sequence (Q9UM73 with tags, fused parts or gaps I1461V/K1491R/D1529E): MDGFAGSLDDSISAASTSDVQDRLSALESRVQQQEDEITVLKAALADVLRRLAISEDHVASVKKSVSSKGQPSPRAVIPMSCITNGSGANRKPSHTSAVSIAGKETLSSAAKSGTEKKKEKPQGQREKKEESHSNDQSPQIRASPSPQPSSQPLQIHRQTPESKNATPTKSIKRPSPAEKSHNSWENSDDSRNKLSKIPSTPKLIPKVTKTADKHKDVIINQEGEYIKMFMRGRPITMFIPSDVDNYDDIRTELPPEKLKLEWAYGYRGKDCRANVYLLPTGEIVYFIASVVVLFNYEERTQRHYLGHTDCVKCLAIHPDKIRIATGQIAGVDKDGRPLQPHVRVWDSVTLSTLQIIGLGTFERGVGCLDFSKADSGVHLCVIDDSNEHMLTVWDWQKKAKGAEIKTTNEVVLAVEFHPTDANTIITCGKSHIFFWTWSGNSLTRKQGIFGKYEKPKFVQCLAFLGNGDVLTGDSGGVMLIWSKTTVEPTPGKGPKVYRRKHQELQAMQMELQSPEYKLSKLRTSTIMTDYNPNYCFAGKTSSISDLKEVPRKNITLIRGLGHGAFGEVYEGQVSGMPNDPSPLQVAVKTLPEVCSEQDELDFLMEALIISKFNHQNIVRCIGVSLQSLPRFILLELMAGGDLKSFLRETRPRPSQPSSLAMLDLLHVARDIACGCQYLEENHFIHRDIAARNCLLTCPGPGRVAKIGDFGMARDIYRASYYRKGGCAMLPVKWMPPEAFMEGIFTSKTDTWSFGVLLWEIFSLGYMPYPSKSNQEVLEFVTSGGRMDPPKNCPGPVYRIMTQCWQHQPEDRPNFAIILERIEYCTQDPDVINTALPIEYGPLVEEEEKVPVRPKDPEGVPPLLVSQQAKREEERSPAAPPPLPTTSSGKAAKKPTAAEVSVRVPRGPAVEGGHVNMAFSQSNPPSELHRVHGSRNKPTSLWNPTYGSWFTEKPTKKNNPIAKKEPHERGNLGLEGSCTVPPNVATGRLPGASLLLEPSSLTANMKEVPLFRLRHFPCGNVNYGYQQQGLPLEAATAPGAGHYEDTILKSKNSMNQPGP
T1 sequence (Q9UM73 with tags, fused parts or gaps): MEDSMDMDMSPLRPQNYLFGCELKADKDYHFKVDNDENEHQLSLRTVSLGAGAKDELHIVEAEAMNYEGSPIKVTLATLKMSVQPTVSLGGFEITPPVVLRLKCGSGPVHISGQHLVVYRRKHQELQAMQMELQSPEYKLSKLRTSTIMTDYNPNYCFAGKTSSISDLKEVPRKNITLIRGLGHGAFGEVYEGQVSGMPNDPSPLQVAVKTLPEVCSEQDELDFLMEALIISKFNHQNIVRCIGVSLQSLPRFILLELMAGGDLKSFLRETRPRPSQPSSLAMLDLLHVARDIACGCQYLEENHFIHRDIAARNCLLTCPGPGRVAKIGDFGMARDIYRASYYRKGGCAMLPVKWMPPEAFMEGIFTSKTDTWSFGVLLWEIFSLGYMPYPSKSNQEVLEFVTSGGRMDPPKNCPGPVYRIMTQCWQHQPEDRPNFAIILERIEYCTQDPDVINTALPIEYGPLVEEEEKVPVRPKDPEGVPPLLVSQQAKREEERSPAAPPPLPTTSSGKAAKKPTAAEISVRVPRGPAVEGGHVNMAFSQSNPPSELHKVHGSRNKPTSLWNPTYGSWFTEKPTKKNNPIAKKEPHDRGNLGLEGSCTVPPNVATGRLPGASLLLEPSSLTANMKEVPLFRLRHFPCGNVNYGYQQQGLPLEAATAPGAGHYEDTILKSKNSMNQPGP
T3 sequence (Q9UM73 with tags, fused parts or gaps I1461V/K1491R/D1529E): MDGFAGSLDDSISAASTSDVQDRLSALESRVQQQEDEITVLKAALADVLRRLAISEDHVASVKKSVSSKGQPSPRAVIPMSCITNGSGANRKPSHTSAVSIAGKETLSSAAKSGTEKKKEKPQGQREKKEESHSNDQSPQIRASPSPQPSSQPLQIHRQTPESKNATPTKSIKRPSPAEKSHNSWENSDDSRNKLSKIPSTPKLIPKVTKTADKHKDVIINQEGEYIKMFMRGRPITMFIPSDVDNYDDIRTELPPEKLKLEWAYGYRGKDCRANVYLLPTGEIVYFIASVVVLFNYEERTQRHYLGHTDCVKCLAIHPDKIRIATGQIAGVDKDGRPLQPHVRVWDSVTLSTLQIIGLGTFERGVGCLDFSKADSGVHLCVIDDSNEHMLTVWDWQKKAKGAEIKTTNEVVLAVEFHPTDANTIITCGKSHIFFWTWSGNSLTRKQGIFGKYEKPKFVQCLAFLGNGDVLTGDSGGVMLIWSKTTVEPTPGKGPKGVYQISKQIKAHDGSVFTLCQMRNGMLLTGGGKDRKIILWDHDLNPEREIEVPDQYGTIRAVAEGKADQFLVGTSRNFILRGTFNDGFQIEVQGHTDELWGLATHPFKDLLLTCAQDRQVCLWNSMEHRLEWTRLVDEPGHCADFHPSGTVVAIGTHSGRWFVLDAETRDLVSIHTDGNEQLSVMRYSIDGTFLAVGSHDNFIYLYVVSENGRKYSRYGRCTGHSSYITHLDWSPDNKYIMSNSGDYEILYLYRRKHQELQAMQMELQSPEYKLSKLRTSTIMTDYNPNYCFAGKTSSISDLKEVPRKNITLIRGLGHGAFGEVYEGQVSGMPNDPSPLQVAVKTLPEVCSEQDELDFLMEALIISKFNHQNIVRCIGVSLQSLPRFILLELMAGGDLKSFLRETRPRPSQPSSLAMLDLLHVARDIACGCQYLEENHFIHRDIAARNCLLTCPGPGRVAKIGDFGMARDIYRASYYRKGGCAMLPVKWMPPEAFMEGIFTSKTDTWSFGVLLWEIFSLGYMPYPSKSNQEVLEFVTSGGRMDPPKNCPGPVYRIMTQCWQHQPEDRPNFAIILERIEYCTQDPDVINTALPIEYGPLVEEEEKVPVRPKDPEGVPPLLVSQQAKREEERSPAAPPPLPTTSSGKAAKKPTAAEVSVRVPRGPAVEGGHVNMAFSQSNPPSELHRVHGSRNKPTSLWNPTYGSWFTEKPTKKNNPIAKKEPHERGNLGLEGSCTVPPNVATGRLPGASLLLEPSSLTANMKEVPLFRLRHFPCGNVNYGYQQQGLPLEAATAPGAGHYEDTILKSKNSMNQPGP

| Structure (SMILES) | activity of NPM-ALK (NPM-ALK) | Inhibition on autophosphorylation (BA/F3cells) ([2]; final concentration 10 μM) | Inhibition on autophosphorylation ([5]; final concentration 10 μM) | Inhibition on peptide substrate ([6]; final concentration 10 μM) | Inhibition on autophosphorylation (BA/F3cells) ([2]; final concentration 10 nM) | Inhibition on autophosphorylation ([5]; final concentration 10 nM) | inhibition at 0.01 µM (U-87MG cells; [10]) | Inhibition on peptide substrate ([6]; final concentration 10 nM) | inhibition at 0.01 µM (v1 expressing 3T3 cells; [9]) | further results |
| --- | --- | --- | --- | --- | --- | --- | --- | --- | --- | --- |
| COc1cc2ncnc(Nc3ccc(O)cc3)c2cc1OC [WHI-P131, 4-(4′-Hydroxyphenyl)amino-6,7-dimethoxyquinazo line] | inhibit the activity of NPM-ALK |  |  |  |  |  |  |  |  |  |
| COc1cc2ncnc(Nc3ccc(O)c(Br)c3)c2cc1OC [compound A, 4-[(3′-Bromo-4′-hydroxyphenyl)amino]-6,7-dimethoxyquinazoline] | inhibit the activity of NPM-ALK | 74% | 104% | 99% |  |  |  |  |  | cell growth of v1 expressing BA/F3 cells (FIG. 6(b)) [1]: the cell growth was markedly inhibited by concentration-dependence of compound A and cell death was induced; intracellular autophosphorylation of the EML4-ALK fusion polypeptide v1 (FIG. 4) ([2]; 1 μM, 5 μM and 10 μM, 3 hours): inhibits the intracellular autophosphorylation of the EML4-ALK fusion polypeptide v1 in a concentration-dependent manner; Inhibition on autophosphorylation (3T3cells) ([3]; final concentration 10 μM): 82%; cell growth of CD8 expressing BA/F3 cells (FIG. 6(a)) [4]: a slight growth inhibition was observed; inhibition rate of anchorage independent growth, U-87MG cell (U-87MG cells; final concentration 10 μM): 15%; inhibition rate of anchorage independent growth, v1 expressing 3T3 cells (v1 expressing 3T3 cells; final concentration 10 μM, 3 days, Day 0 = 100%, Day 3 = 0% inhibition): 106% |
| O=C(COc1ccc(OC(F)(F)F)cc1)NCc1nc(C(=O)NCCc2cccc(Cl)c2)cs1 [compound B, N-[2-(3-chlorophenyl)ethyl]-2-[({[4-(trifluoromethoxy)phenoxy]acetyl}amino)methyl]-1,3-thiazole-4-carboxamide] |  | 77% | 68% | 56% |  |  |  |  |  | inhibition at 10 µM ([3]; NIH3T3, final concentration 10 μM, read-out: Inhibition on autophosphorylation (3T3cells)): 49%; inhibition at 10 µM (U-87MG cells; Homo sapiens, U-87 MG, 72 h, final concentration 10 μM, read-out: inhibition rate of anchorage independent growth, U-87MG cell): 34%; inhibition at 10 µM (v1 expressing 3T3 cells; [9]): 91% |
| COc1cc(N2CCC(N3CCN(C)CC3)CC2)ccc1Nc1ncc(Cl)c(Nc2ccccc2S(=O)(=O)C(C)C)n1 [compound C, 5-chloro-N^4-[2-(isopropylsulfonyl)phenyl]-N^2-{2-methoxy-4-[4-(4-methylpiperazin-1-yl)piperidin-1-yl]phenyl}pyrimidine-2,4-diamine] |  |  |  |  | 84% | 102% | -2% | 99% | 131% |  |
| CNS(=O)(=O)c1ccccc1Nc1nc(Nc2ccc(N3CCN(C)CC3)cc2OC)ncc1Br [compound D, 2-[(5-bromo-2-{[2-methoxy-4-(4-methylpiperazin-1-yl)phenyl]amino}pyrimidin-4-yl)amino]-N-methylbenzenesulfonamide] |  |  |  |  | 90% | 96% | -2% | 99% | 135% | inhibition at 0.01 µM [7]: 95%; inhibition at 0.01 µM ([3]; NIH3T3, final concentration 10 nM, read-out: Inhibition on autophosphorylation (3T3cells)): 86%; inhibition of growth of v1 expressing 3T3 cells (tumor), tumor volume [8]: 101% |
